Common to all, as to format: cell-based
The test system of assay [1] is Human umbilical vein endothelial cells. Briefly: Protein synthesis in 3-D-embedded endothelial cells. The conditions noted are these: growth factor-stimulated cells. From the text: The laminar network of type A and type B lamins directly or indirectly binds chromatin and DNA, as well as a variety of inner nuclear membrane proteins functionally linked to nuclear architecture and mechanical integrity, chromatin organization, gene regulation, and DNA replication (Crisp and Burke, supra; Dechat et al., supra; Starr, supra).

Assay [2] has the same test system. The assay is described as follows: Atomic force microscopy micro-indentation of pericellular ECM rigidity. Particulars: VEGF/HGF-stimulated, fibrin gels. The protocol:
Since ECM rigidity regulates cytoskeletal remodeling and force generation, and consequently cell function (Engler et al., 2006. Cell, 126: 677-689; Wozniak and Chen, supra; Zajac and Discher, 2008. Curr. Opin. Cell Biol., 20: 609-615), atomic force microscopy micro-indentation (AFM) was employed to quantify endothelial cell-dependent changes in ECM remodeling. AFM was performed by first washing fibrin gels with phosphate buffered saline (PBS) after removing culture medium. Samples were mechanically characterized using an Asylum MFP-3D atomic force microscope (Asylum Research, Santa Barbara, Calif.). Micro-indentation was performed using a sphere-tipped probe (Novascan, Ames, Iowa) with a sphere diameter of 5 μm and a nominal spring constant of ˜60 pN/nm. The cantilever spring constant was confirmed by thermal fluctuation method (Thundat et al., 1994. Applied Physics Letters, 64: 2894-2896). The AFM system was calibrated by following the manufacturer's recommended procedure before each indentation measurement. AFM micro-indentation was performed in PBS solution at room temperature. Individual force-indentation profile was acquired at an indentation rate of 2 μm/s using deflection trigger mode with a trigger value of 200 nm. […] Shear modulus at each position was calculated from fitting force-indentation data using a Hertz sphere model (Richert et al., 2004, Biomacromolecules, 5: 1908-1916).

The test system is the same in assay [3]. Briefly: Nesprin distribution at the nuclear envelope in 3-D fibrin gels. Particulars: VEGF/HGF-stimulated. The source says: Physical interactions between cytoskeletal networks and the nucleus are mediated by a family of Klarsicht, ANC-1, Syne homology (KASH) domain-containing proteins. The C-terminal domains of the proteins are embedded within the outer nuclear membrane, where they interact with the inner nuclear membrane via members of the SUN protein family (Crisp et al., 2006. J. Cell Biol., 172: 41-53; Dechat et al., supra; Starr, supra; Stewart et al., supra; Wilhelmsen et al., 2006. J. Cell Biol., 171: 799-810). In turn, SUN proteins span the inner nuclear membrane to establish binding interactions with a scaffold of lamin family members and nuclear pore complexes (Dechat et al., supra; Starr, supra; Stewart et al., supra). To determine whether this interaction plays a role in the nuclear morphology regulation by ECM remodeling, expression of nesprins-1 and 2 (also termed Syne-1 and 2) nesprin-3 was examined in 3-D-embedded endothelial cells. Nesprins-1 and 2 bind F-actin, while nesprin-3 indirectly interacts with intermediate filaments via binding of plectin (Crisp and Burke, 2008. FEBS Lett., 582: 2023-2032; Starr, supra; Stewart et al., supra).

Another assay concerns human endothelial cells. The assay is described as follows: Intracellular nanorheology (bead tracking) of 3-D-embedded endothelial cells. The source says: Endothelial cells cultured atop highly malleable surfaces retain a spherical configuration, fail to organize stress fibers, and are unable to exert tractional forces—a phenotype identical to that observed in 3-D-embedded, Fn matrix assembly-incompetent endothelial cells. A cell's internal stiffness is a viscoelastic property governed by cytoskeletal assembly, actin crosslinking, and the production of actomyosin-dependent stress. Internal stiffness changes as a function of the perceived stiffness of the surrounding substratum (Solon et al. 2007. Biophys. J., 93(12): 4453-4461). Therefore, the micromechanical properties of 3-D-embedded endothelial cells were monitored via intracellular nanorheology.
Prior to embedding in the 3-D fibrin matrix, endothelial cells were ballistically microinjected with 100 nm polystyrene beads to circumvent the endocytic pathway and subsequent directed motion of the beads. After 3 days of incubation, the beads dispersed in the cytoplasm and their centroids were tracked with high spatial and temporal resolution using fluorescence microscopy. […] Elastic moduli, which quantify the local resistance of the cytoplasm against small random forces acting on the surface of the beads, were derived from MSD curves to quantify cellular mechanical properties.
In the absence of Fn fibrillogenesis, an impaired ability of embedded endothelial cells to generate myosin-dependent forces and increase cytoplasmic stiffness was predicted to affect both Fn unfolding, as well as the ability of the cells to properly register the mechanical properties of the surrounding substratum (Wu et al. 1995. Cell, 83(5): 715-724; Zhong et al. 1998. J. Cell Biol., 141(2): 539-551; Baneyx et al. 2002. Proc. Natl. Acad. Sci. USA, 99(8): 5139-5143; Discher et al. 2005. Science, 310(5751): 1139-1143; Engler, supra; and Yoneda, supra). As such, the rheologic and functional characteristics of endothelial cells were assessed in the presence of the specific myosin ATPase inhibitor, blebbistatin. […]

As to `CNC(=O)[C@H](Cc1c[nH]c2ccccc12)NC(=O)[C@@H](CC(=O)NO)CC(C)C` [GM6001], the protein synthesis result in assay [1] is “no major changes”. For the same compound, the “3-D pericellular rigidity (shear modulus by AFM)” value in assay [2] is given as “significantly lower”. For the same compound, the “nesprin distribution at the nuclear envelope” value in assay [3] is reported as “irregular nesprin distributions”.

Turning to `Cc1ccc2c(c1)C(=O)C1(O)CCN(c3ccccc3)C1=N2` (stereo not drawn) [blebbistatin], in the assay with human endothelial cells (3-D fibrin gel, 50 μM blebbistatin), the cytoplasmic stiffness result is on record as “failed to increase”.

For “FUD: 49-residue functional upstream domain of Streptococcus pyogenes F1 adhesion protein, SEQ ID NO: 10; fibronectin fibril assembly inhibitor (KDQSPLAGESGETEYITEVYGNQQNPVDIDKKLPNETGFSGNMVETEDT; Streptococcus pyogenes; Functional Upstream Domain (FUD) of F1 adhesion protein)”, in assay [1], the protein synthesis entry is listed as “no major changes”. Further, the “3-D pericellular rigidity (shear modulus by AFM)” value in assay [2] was “significantly lower”. For the same compound, the “nesprin distribution at the nuclear envelope” value in assay [3] is listed as “irregular nesprin distributions”. Moreover, in the assay with human endothelial cells (3-D fibrin matrix, 3 days, relative to control cells), the “mean square displacement (MSD) of the beads” value is recorded as “significantly increased”. Besides, in the assay with human endothelial cells (3-D fibrin matrix, versus control cells, P<0.001), the “elastic modulus of the cytoplasm” value is “significantly lower”.

The values are drawn from patent US8697081B2, “Method of modulating neovascularization” (The Regents of the University of Michigan, priority 2008, dated 2014).
